# Source: PMC8298522 (Scientific Reports, 2021)
# System: insulin-positive and insulin-negative pancreatic tumors
# Format: in vivo
# Conditions: [^68Ga]DOTATOC PET/CT, scan 30 min after injection
# Experimental: PET scans were performed after 30 min of injection of the labeled substance via tail vein (10 MBq/mouse) under 2.0% isoflurane anesthesia using a Triumph LabPET12/SPECT4/CT (TriFoil Imaging Inc., Chatsworth, CA, USA)[41].
# After completion of the PET/CT procedures, mice were sacrificed by cervical dislocation, followed by immediate resection of the pancreas. Tissues were spread on filter paper and immediately fixed in 10% formalin at 4 °C. For the analysis of pancreatic tumors, serial formalin-fixed paraffin-embedded sections (4-μm thickness) were stained with anti-insulin and anti-glucagon antibody, as previously reported[39]. Briefly, primary rabbit polyclonal antibody was used for insulin detection at an antibody dilution of 1:100 (Cat# sc-9168; Santa Cruz Biotechnology, USA) and a mouse monoclonal antibody glucagon detection at an antibody dilution of 1:100 (Cat# ab10988; Abcam, USA). The secondary antibodies utilized for the assay were Alexa Fluor 488 goat anti-rabbit antibody at 1:200 dilution (Cat# A-11008; Thermo Fisher Scientific, USA) and Alexa Fluor 546 goat anti-mouse antibody at 1:200 dilution (Cat# A-11030; Thermo Fisher Scientific, USA), respectively. The slides were prepared for analyses under a fluorescence microscope (BZ-X700; Keyence, Osaka, Japan).
structure (smiles),measurement,value
"C[C@@H](O)[C@@H]1NC(=O)[C@H](CCCCN)NC(=O)[C@@H](Cc2c[nH]c3ccccc23)NC(=O)[C@H](Cc2ccc(O)cc2)NC(=O)[C@@H](NC(=O)[C@@H](Cc2ccccc2)NC(=O)CN2CCN(CC(=O)[O-])CCN(CC(=O)[O-])CCN(CC(=O)[O-])CC2)CSSC[C@@H](C(=O)N[C@H](CO)[C@@H](C)O)NC1=O.[68Ga+3] [[^68Ga]DOTATOC, ^68Ga-labeled 1,4,7,10-tetraazacyclododecane-N,N′,N″,N″-tetraacetic acid-d-Phe^1-Tyr^3-octreotide]",Specificity for detecting insulin-positive tumors,0%
